Measured values published in patent US20190125896A1, “ANTI-INFECTIVE COMPOSITIONS COMPRISING PHYTOGLYCOGEN NANOPARTICLES” (MIREXUS BIOTECHNOLOGIES INC., priority 2016, published 2019).
Read-outs that look alike come from different tables or passages of the source.

What was measured:
B. subtilis 168 = test: Sensitization to antibiotics: MIC in medium supplemented with phytoglycogen; type: cell-based; settings: Bacillus subtilis; for fold-change reduction in MIC, CP0.125: cationized phytoglycogen at 0.125 of its MIC; for fold-change reduction in MIC, CP0.25: cationized phytoglycogen at 0.25 of its MIC; for fold-change reduction in MIC, CP0.5: cationized phytoglycogen at half-strength of its MIC
E. coli AB264 = test: as above; type: cell-based; settings: Escherichia coli; for fold-change reduction in MIC, CP0.125: cationized phytoglycogen at 0.125 of its MIC; for fold-change reduction in MIC, CP0.25: cationized phytoglycogen at 0.25 of its MIC; for fold-change reduction in MIC, CP0.5: cationized phytoglycogen at half-strength of its MIC
P. aeruginosa PAO1 = test: as above; type: cell-based, Pseudomonas aeruginosa; settings: for ↓ Fold-change in MIC (cationized phytoglycogen) MIC.5 mg/ml: 0.5 mg cationized phytoglycogen · ml^−1 Mueller-Hinton Broth; for ↓ Fold-change in MIC (cationized phytoglycogen) MIC1 mg/ml: 1 mg cationized phytoglycogen · ml^−1 Mueller-Hinton Broth; for ↓ Fold-change in MIC (cationized phytoglycogen) MIC10 mg/ml: 10 mg cationized phytoglycogen · ml^−1 Mueller-Hinton Broth
Experimental: MIC assays as defined in Example 15 were performed in sterile and untreated 96 well microtitre plates according to the broth micro-dilution technique described in either the Clinical and Laboratory Standards Institute document M07-A9: Methods for Dilution Antimicrobial Susceptibility Tests for Bacteria that Grow Aerobically; Approved Standard and document M27-A2 Reference Method for Broth Dilution Antifungal Susceptibility Testing of Yeasts; Approved Standard—Second Edition, with the exception that, where indicated, medium was additionally supplemented with native or cationized phytoglycogen. Assessments done using C. utilis ATCC9950, B. subtilis 168 and E. coli AB264 employed native or cationized phytoglycogen at concentrations ⅛, ¼, ½ their respective MIC values for cationized phytoglycogen. Assessments of the opportunistic pathogen P. aeruginosa PAO1 were made at final in-assay concentrations of 0.5, 1 or 10 mg native or cationized phytoglycogen.ml^−1. Experiments were performed as in-assay duplicates, and were repeated a minimum of three times (n=6).
MIC assays were performed in duplicate within each experiment and were repeated a minimum three times to confirm the data (n=6). MIC values with a four-fold or greater change relative to the non-supplemented medium MIC represent a statistically-significant change in MIC value. Only those antibiotic-cationized phytoglycogen combinations which caused a four-fold change relative to the non-supplemented medium MIC were deemed as indicative of resulting in potentiation (MIC value was less), or tolerance (MIC value increased).

[1] = system: P. aeruginosa PAO1 biofilm; test: Biofilm eradication: 20 h biofilms treated with antibiotic and cationized phytoglycogen; type: cell-based, Pseudomonas aeruginosa; settings: 24 h, medium alone
Experimental: Biofilm growth and treatments were performed in sterile 96 well polystyrene plates. Sterile solutions of gamma-irradiated cationized phytoglycogen was prepared by reconstitution and dilution as required in sterile Mueller-Hinton broth. P. aeruginosa PAO1 stocks were revived by sub-culturing P. aeruginosa PAO1 (37° C., 150 rpm, 16-18 h) in Mueller-Hinton broth (Oxoid; Fisher Scientific, Canada). The inoculum was prepared immediately prior to use by diluting in sterile Mueller-Hinton broth to a final in-assay cell density of 5×10^5 CFU.ml^−1. 100 μl of this solution was transferred to wells and incubated (37° C., 150 rpm). Sterile broth was the negative growth control. At 20 h, plates were transferred to a biological safety cabinet, well contents were gently aspirated and the wells rinsed with sterile 0.9% (wt/vol) NaCl. […] Positive growth controls contained inoculated medium, non-supplemented or with 1 or 10 mg cationized phytoglycogen.ml^−1. Plates were incubated at 37° C. for a further 24 h, after which biofilms were quantitated as previously described. Experiments were done in quadruplicate replicate and repeated three times (n=12).

[2] = Pseudomonas aeruginosa, PAO1, P. aeruginosa, non-supplemented Mueller-Hinton Broth, read-out: MIC
[3] = P. aeruginosa, non-supplemented Mueller-Hinton Broth

Compound | fold-change reduction in MIC, CP0.125 (B. subtilis 168) | fold-change reduction in MIC, CP0.25 (B. subtilis 168) | fold-change reduction in MIC, CP0.5 (B. subtilis 168) | fold-change reduction in MIC, CP0.125 (E. coli AB264) | fold-change reduction in MIC, CP0.25 (E. coli AB264) | fold-change reduction in MIC, CP0.5 (E. coli AB264) | ↓ Fold-change in MIC (cationized phytoglycogen) MIC.5 mg/ml (P. aeruginosa PAO1; P. aeruginosa) | ↓ Fold-change in MIC (cationized phytoglycogen) MIC1 mg/ml (P. aeruginosa PAO1; P. aeruginosa) | ↓ Fold-change in MIC (cationized phytoglycogen) MIC10 mg/ml (P. aeruginosa PAO1; P. aeruginosa) | MIC (P. aeruginosa PAO1; [2]) | change in biofilm of 20 h biofilms ([1]; at the MIC) | reduction of biofilm ([1]; four-fold the MIC) | reduction of biofilm ([1]; two-fold the MIC) | MIC (P. aeruginosa PAO1; [3]) | MIC (P. aeruginosa PAO1; Pseudomonas aeruginosa, PAO1, read-out: MIC (μg · ml^−1))
CC1(C)S[C@@H]2[C@H](NC(=O)[C@H](N)c3ccccc3)C(=O)N2[C@H]1C(=O)O [ampicillin] | 1 fold | 1 fold | 2 fold | 1-2 fold | 1-2 fold | 1-2 fold | ↓ 8 fold | ↓ 8-16 fold | 2 fold | 1020 µg/mL | – | – | – | – | –
CC1(C)S[C@@H]2[C@H](NC(=O)C(C(=O)O)c3ccccc3)C(=O)N2[C@H]1C(=O)O (some centres unmarked) [carbenicillin] | 1 fold | 2 fold | ↓4-8 fold | 1-2 fold | ↓4-8 ^ fold | ↓8-16^ fold | ↓ 16-32 fold | ↓ 32 fold | ↓ 8-16 fold | 64 µg/mL | – | – | – | – | –
CC(C)(O/N=C(\C(=O)N[C@@H]1C(=O)N2C(C(=O)[O-])=C(C[n+]3ccccc3)CS[C@H]12)c1csc(N)n1)C(=O)O [ceftazidime] | – | – | – | – | – | – | ↓ 8 fold | ↓ 32-64 fold | ↓ 4-8 fold | 2 µg/mL | – | – | – | – | –
O=C(N[C@H](CO)[C@H](O)c1ccc([N+](=O)[O-])cc1)C(Cl)Cl [chloramphenicol] | 1 fold | ↓2-4 fold | – | 1-2 fold | 1-2 fold | 1-2 fold | ↓ 4 fold | ↓ 8 fold | 2 fold | 64 µg/mL | – | – | – | – | –
O=C(O)c1cn(C2CC2)c2cc(N3CCNCC3)c(F)cc2c1=O [ciprofloxacin] | – | – | – | – | – | – | – | – | – | – | no change in biofilm | 73% | 64% | – | –
CC[C@H]1OC(=O)[C@H](C)[C@@H](O[C@H]2C[C@@](C)(OC)[C@@H](O)[C@H](C)O2)[C@H](C)[C@@H](O[C@@H]2O[C@H](C)C[C@H](N(C)C)[C@H]2O)[C@](C)(O)C[C@@H](C)C(=O)[C@H](C)[C@@H](O)[C@]1(C)O [erythromycin] | 1-2 fold | ↓2-4 fold | ↓2-4 fold | 1-2 fold | 1-2 fold | 1-2 fold | ↓ 4 fold | ↓ 8 fold | 1-2 fold | 128 µg/mL | – | – | – | – | –
CCn1cc(C(=O)O)c(=O)c2ccc(C)nc21 [nalidixic acid] | – | – | – | – | – | – | ↓ 4-32 fold | ↓ 16-32 fold | ↓ 8-16 fold | 1020 µg/mL | – | – | – | – | –
CO[C@@H]1[C@@H](OC(N)=O)[C@@H](O)[C@H](Oc2ccc3c(O)c(NC(=O)c4ccc(O)c(CC=C(C)C)c4)c(=O)oc3c2C)OC1(C)C [novobiocin] | – | – | – | – | – | – | ↓ 4-16 fold | ↓ 16-32 fold | ↓ 4 fold | 2050 µg/mL | – | – | – | – | –
CC1(C)S[C@@H]2[C@H](NC(=O)Cc3ccccc3)C(=O)N2[C@H]1C(=O)O [penicillin G] | 1-2 fold | ↓8-16 fold | ↓16-32 fold | 1-2 fold | ↓4-8 ^ fold | ↓8 fold | ↓ 16-32 fold | ↓64-128 fold | ↓ 2-4 fold | – | – | – | – | 12500 µg/mL | –
CN(C)[C@@H]1C(O)=C(C(N)=O)C(=O)[C@@]2(O)C(O)=C3C(=O)c4c(O)cccc4[C@@](C)(O)[C@H]3C[C@@H]12 [tetracycline] | – | – | – | – | – | – | ↓ 8 fold | ↓ 8 fold | 2 fold | 16 to 32 µg/mL | – | – | – | – | –
CN[C@H](CC(C)C)C(=O)N[C@H]1C(=O)N[C@@H](CC(N)=O)C(=O)N[C@H]2C(=O)N[C@H]3C(=O)N[C@H](C(=O)N[C@H](C(=O)O)c4cc(O)cc(O)c4-c4cc3ccc4O)[C@H](O)c3ccc(c(Cl)c3)Oc3cc2cc(c3O[C@@H]2O[C@H](CO)[C@@H](O)[C@H](O)[C@H]2O[C@H]2C[C@](C)(N)[C@H](O)[C@H](C)O2)Oc2ccc(cc2Cl)[C@H]1O [vancomycin] | 1 fold | 1 fold | 1-2 fold | 1-2 fold | ↓2-4 ^ fold | ↓4-16^ fold | ↓ 2-4 fold | ↓ 16 fold | ↓ 4 fold | – | – | – | – | – | 1020 µg/mL
gentamicin | 1-2 fold | ↓2-4 fold | ↓4-8 fold | 1-2 fold | 2 fold | ↓4-8 ^ fold | 2 fold | 2 fold | 1 fold | – | – | – | – | 0.5 µg/mL | –
polymyxin B [polymixin B] | – | – | – | – | – | – | 1-2 fold | ↓ 2-4 fold | 2 fold | – | – | – | – | 0.125 to 0.25 µg/mL | –
